Among the data in patent US11331369B2, “Endoparasitic depsipeptides” (Zoetis Services LLC, priority 2017, dated 2022) are minimal effective concentration values, retold here.

The experiment relates to microfilariae of Dirofilaria immitis. The experiment can be described thus: Dirofilaria immitis, Microfilaria (DiMF) In vitro Assay. As to conditions: 72 h, read-out: DiMF Minimum Effective Dose (MED), approximately 72 hours incubation, microfilariae assessed for survival or paralysis. It is filed as cell-based.
`Cc1cnn(Cc2ccc(C[C@H]3OC(=O)[C@H](CC(C)C)N(C)C(=O)[C@@H](C)OC(=O)[C@H](CC(C)C)N(C)C(=O)[C@@H](Cc4ccc(Cn5cc(C(F)(F)F)cn5)cc4)OC(=O)[C@H](CC(C)C)N(C)C(=O)[C@@H](C)OC(=O)[C@H](CC(C)C)N(C)C3=O)cc2)c1` [Example 1a-30, (3S,6R,9S,12R,15S,18R,21S,24R)-3,9,15,21-tetraisobutyl-4,6,10,16,18,22-hexamethyl-12-(4-((4-methyl-1H-pyrazol-1-yl)methyl)benzyl)-24-(4-((4-(trifluoromethyl)-1H-pyrazol-1-yl)methyl)benzyl)-1,7,13,19-tetraoxa-4,10,16,22-tetraazacyclotetracosan-2,5,8,11,14,17,20,23-octaone]: the minimal effective concentration fell in the range of 0.01 to 0.1 µM.

On to `CC(C)C[C@H]1C(=O)O[C@H](Cc2ccc(CN3CCC(F)(F)CC3)cc2)C(=O)N(C)[C@@H](CC(C)C)C(=O)O[C@H](C)C(=O)N(C)[C@@H](CC(C)C)C(=O)O[C@H](Cc2ccc(CN3CCC(F)(F)CC3)cc2)C(=O)N(C)[C@@H](CC(C)C)C(=O)O[C@H](C)C(=O)N1C` [Example 9-4, (3S,6R,9S,12R,15S,18R,21S,24R)-6,18-bis(4-((4,4-difluoropiperidin-1-yl)methyl)benzyl)-3,9,15,21-tetraisobutyl-4,10,12,16,22,24-hexamethyl-1,7,13,19-tetraoxa-4,10,16,22-tetraazacyclotetracosan-2,5,8,11,14,17,20,23-octaone], for which the minimal effective concentration was 0.01 to 0.1 µM. As for `CC(C)C[C@H]1C(=O)O[C@H](Cc2ccc(Cn3ccc(-c4ccncc4)n3)cc2)C(=O)N(C)[C@@H](CC(C)C)C(=O)O[C@H](C)C(=O)N(C)[C@@H](CC(C)C)C(=O)O[C@H](Cc2ccc(Cn3ccc(-c4ccncc4)n3)cc2)C(=O)N(C)[C@@H](CC(C)C)C(=O)O[C@H](C)C(=O)N1C` [Example 1b-138, (3S,6R,9S,12R,15S,18R,21S,24R)-3,9,15,21-tetraisobutyl-4,6,10,16,18,22-hexamethyl-12,24-bis(4-((3-(pyridin-4-yl)-1H-pyrazol-1-yl)methyl)benzyl)-1,7,13,19-tetraoxa-4,10,16,22-tetraazacyclotetracosan-2,5,8,11,14,17,20,23-octaone], the minimal effective concentration was 0.01 to 0.1 µM. For `CC(C)C[C@H]1C(=O)O[C@H](Cc2ccc(Cn3cc(C4CCCC4)cn3)cc2)C(=O)N(C)[C@@H](CC(C)C)C(=O)O[C@H](C)C(=O)N(C)[C@@H](CC(C)C)C(=O)O[C@H](Cc2ccccc2)C(=O)N(C)[C@@H](CC(C)C)C(=O)O[C@H](C)C(=O)N1C` [Example 2-38, (3S,6R,9S,12R,15S,18R,21S,24R)-6-benzyl-18-(4-((4-cyclopentyl-1H-pyrazol-1-yl)methyl)benzyl)-3,9,15,21-tetraisobutyl-4,10,12,16,22,24-hexamethyl-1,7,13,19-tetraoxa-4,10,16,22-tetraazacyclotetracosan-2,5,8,11,14,17,20,23-octaone], the minimal effective concentration was in the range of 0.01 to 0.1 µM. In the case of `CC(C)C[C@H]1C(=O)O[C@H](Cc2ccc(Cn3cccc3/C(N)=N/O)cc2)C(=O)N(C)[C@@H](CC(C)C)C(=O)O[C@H](C)C(=O)N(C)[C@@H](CC(C)C)C(=O)O[C@H](Cc2ccc(Cn3cccc3C(N)=NO)cc2)C(=O)N(C)[C@@H](CC(C)C)C(=O)O[C@H](C)C(=O)N1C` [Example 9-30, N′-hydroxy-1-[[4-[[(2R,5S,8R,11S,14R,17S,20R,23S)-14-[[4-[[2-[(Z)—N′-hydroxycarbamimidoyl]pyrrol-1-yl]methyl]phenyl]methyl]-5,11,17,23-tetraisobutyl-4,8,10,16,20,22-hexamethyl-3,6,9,12,15,18,21,24-octaoxo-1,7,13,19-tetraoxa-4,10,16,22-tetrazacyclotetracos-2-yl]methyl]phenyl]methyl]pyrrole-2-carboxamidine], the minimal effective concentration lay within 0.001 to 0.01 µM.

As to `Cc1cn(Cc2ccc(C[C@H]3OC(=O)[C@H](CC(C)C)N(C)C(=O)[C@@H](C)OC(=O)[C@H](CC(C)C)N(C)C(=O)[C@@H](Cc4ccccc4)OC(=O)[C@H](CC(C)C)N(C)C(=O)[C@@H](C)OC(=O)[C@H](CC(C)C)N(C)C3=O)cc2)c(C)n1` [Example 8-5, (3S,6R,9S,12R,15S,18R,21S,24R)-6-benzyl-18-(4-((2,4-dimethyl-1H-imidazol-1-yl)methyl)benzyl)-3,9,15,21-tetraisobutyl-4,10,12,16,22,24-hexamethyl-1,7,13,19-tetraoxa-4,10,16,22-tetraazacyclotetracosan-2,5,8,11,14,17,20,23-octaone], the minimal effective concentration was in the range of 0.01 to 0.1 µM.

In the case of `CC(C)C[C@H]1C(=O)O[C@H](Cc2ccc(Cn3ccc(-c4ccoc4)n3)cc2)C(=O)N(C)[C@@H](CC(C)C)C(=O)O[C@H](C)C(=O)N(C)[C@@H](CC(C)C)C(=O)O[C@H](Cc2ccc(Cn3ccc(-c4ccoc4)n3)cc2)C(=O)N(C)[C@@H](CC(C)C)C(=O)O[C@H](C)C(=O)N1C` [Example 1b-111, (3S,6R,9S,12R,15S,18R,21S,24R)-6,18-bis(4-((3-(furan-3-yl)-1H-pyrazol-1-yl)methyl)benzyl)-3,9,15,21-tetraisobutyl-4,10,12,16,22,24-hexamethyl-1,7,13,19-tetraoxa-4,10,16,22-tetraazacyclotetracosan-2,5,8,11,14,17,20,23-octaone], the minimal effective concentration lay within 0.01 to 0.1 µM. As for `CC(=O)Nc1cnn(Cc2ccc(C[C@H]3OC(=O)[C@H](CC(C)C)N(C)C(=O)[C@@H](C)OC(=O)[C@H](CC(C)C)N(C)C(=O)[C@@H](Cc4ccccc4)OC(=O)[C@H](CC(C)C)N(C)C(=O)[C@@H](C)OC(=O)[C@H](CC(C)C)N(C)C3=O)cc2)c1` [Example 2-31, N-(1-(4-(((2R,5S,8R,11S,14R,17S,20R,23S)-14-benzyl-5,11,17,23-tetraisobutyl-4,8,10,16,20,22-hexamethyl-3,6,9,12,15,18,21,24-octaoxo-1,7,13,19-tetraoxa-4,10,16,22-tetraazacyclotetracosan-2-yl)methyl)benzyl)-1H-pyrazol-4-yl)acetamide], the minimal effective concentration was in the range of 0.01 to 0.1 µM.

With `CC(C)C[C@H]1C(=O)O[C@H](Cc2ccc(Cn3cc(-c4cnccn4)cn3)cc2)C(=O)N(C)[C@@H](CC(C)C)C(=O)O[C@H](C)C(=O)N(C)[C@@H](CC(C)C)C(=O)O[C@H](Cc2ccc(Cn3cc(-c4cnccn4)cn3)cc2)C(=O)N(C)[C@@H](CC(C)C)C(=O)O[C@H](C)C(=O)N1C` [Example 1b-87, (3S,6R,9S,12R,15S,18R,21S,24R)-3,9,15,21-tetraisobutyl-4,6,10,16,18,22-hexamethyl-12,24-bis(4-((4-(pyrazin-2-yl)-1H-pyrazol-1-yl)methyl)benzyl)-1,7,13,19-tetraoxa-4,10,16,22-tetraazacyclotetracosan-2,5,8,11,14,17,20,23-octaone], the minimal effective concentration is 0.01 to 0.1 µM. For the compound `CC(C)C[C@H]1C(=O)O[C@H](Cc2ccc(Cn3cnnn3)cc2)C(=O)N(C)[C@@H](CC(C)C)C(=O)O[C@H](C)C(=O)N(C)[C@@H](CC(C)C)C(=O)O[C@H](Cc2ccc(Cn3cnnn3)cc2)C(=O)N(C)[C@@H](CC(C)C)C(=O)O[C@H](C)C(=O)N1C` [Example 9-18, (3S,6R,9S,12R,15S,18R,21S,24R)-6,18-bis(4-((1H-tetrazol-1-yl)methyl)benzyl)-3,9,15,21-tetraisobutyl-4,10,12,16,22,24-hexamethyl-1,7,13,19-tetraoxa-4,10,16,22-tetraazacyclotetracosan-2,5,8,11,14,17,20,23-octaone], the minimal effective concentration is 0.01 to 0.1 µM.
